Test results from paper PMC6146087, “α-Glucosidase Inhibitors From the Coral-Associated Fungus Aspergillus terreus” (Frontiers in Chemistry, 2018).

Molecular target: T1, α-glucosidase enzyme from Saccharomyces cerevisiae (Saccharomyces cerevisiae, UniProt P53341)
T1 construct: purchased Sigma Aldrich, USA
Assay: biochemical
Protocol: The α-glucosidase enzyme from Saccharomyces cerevisiae (Sigma Aldrich, USA) solution (1.5 U/mL) was prepared by dissolving the α-glucosidase in […] phosphate buffer (pH 6.8). The α-glucosidase enzyme solution (20 μL), test compounds (10 μL) and buffer (40 μL) were pipetted and mixed in a 96 well microtiter plate. The mixture was incubated at 37°C for 10 min. After incubation, p-nitrophenyl-α-D-glucopyranoside (PNP-G) substrate solution (10 μL, in 20 mM phosphate buffer) was added. The increment of absorbance due to the hydrolysis of PNP-G by α-glucosidase was measured at the wavelength of 410 nm with a microplate reader (Thermo Scientific, Waltham, MA). […] The α-glucosidase inhibitory activity was expressed as percentage inhibition and was calculated using the following formula: inhibition (%) = [1–(ODsample/ODblank)] × 100.

T1 sequence (P53341 whole entry): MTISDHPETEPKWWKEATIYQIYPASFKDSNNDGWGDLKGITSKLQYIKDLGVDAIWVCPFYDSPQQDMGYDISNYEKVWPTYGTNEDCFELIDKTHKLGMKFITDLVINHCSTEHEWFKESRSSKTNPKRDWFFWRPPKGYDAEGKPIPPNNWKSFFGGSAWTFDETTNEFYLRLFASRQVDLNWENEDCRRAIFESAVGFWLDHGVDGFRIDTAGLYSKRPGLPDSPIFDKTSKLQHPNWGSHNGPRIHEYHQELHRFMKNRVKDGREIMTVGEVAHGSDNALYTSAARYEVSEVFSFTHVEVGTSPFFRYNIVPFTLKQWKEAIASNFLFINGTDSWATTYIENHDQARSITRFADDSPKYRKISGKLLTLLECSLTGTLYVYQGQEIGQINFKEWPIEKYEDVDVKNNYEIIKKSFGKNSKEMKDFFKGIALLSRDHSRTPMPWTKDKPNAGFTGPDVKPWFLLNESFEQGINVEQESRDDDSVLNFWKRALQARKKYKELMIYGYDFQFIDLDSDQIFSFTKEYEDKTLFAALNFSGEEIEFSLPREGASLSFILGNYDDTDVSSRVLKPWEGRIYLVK

SMILES | IC50
CO[C@@H]1OC(=O)C(c2ccc(O)cc2)=C1Cc1ccc(O)c(CC=C(C)C)c1 [2b, (+)-Asperteretone B] | 19.2 ± 1.9 µM
CO[C@H]1OC(=O)C(c2ccc(O)cc2)=C1Cc1ccc(O)c(CC=C(C)C)c1 [2a, (−)-Asperteretone B] | 17.3 ± 2.4 µM
COC1OC(=O)C(c2ccc(O)cc2)=C1Cc1ccc(O)c(CCC(C)(C)O)c1 (stereo not drawn) [compound 5, Asperteretone E] | 48.9 ± 7.3 µM
CO[C@H]1OC(=O)C(c2ccc(O)cc2)=C1Cc1ccc2c(c1)CCC(C)(C)O2 [4a, (−)-Asperteretone D] | 15.7 ± 1.1 µM
COc1ccc(C2=C(Cc3ccc4c(c3)CC(C(C)(C)O)O4)[C@@H](OC)OC2=O)cc1 (single isomer, unassigned; (-)) [3a, (−)-Asperteretone C] | 52.2 ± 4.6 µM
CO[C@@H]1OC(=O)C(c2ccc(O)cc2)=C1Cc1ccc2c(c1)CCC(C)(C)O2 [4b, (+)-Asperteretone D] | 18.9 ± 2.3 µM
COC(=O)[C@@H](Cc1ccc(O)c(CC=C(C)C)c1)[C@H](C(=O)O)c1ccc(O)cc1 [1a, (−)-Asperteretone A] | 45.4 ± 3.8 µM
COc1ccc(C2=C(Cc3ccc4c(c3)CC(C(C)(C)O)O4)[C@H](OC)OC2=O)cc1 (single isomer, unassigned; (+)) [3b, (+)-Asperteretone C] | 49.8 ± 5.7 µM
COC(=O)[C@H](Cc1ccc(O)c(CC=C(C)C)c1)[C@@H](C(=O)O)c1ccc(O)cc1 [1b, (+)-Asperteretone A] | 53.1 ± 1.4 µM
